ChEMBL document CHEMBL1154495, “1,5-Benzothiazepine, a versatile pharmacophore: a review” (Eur J Med Chem, 2008)

Tested on: Human immunodeficiency virus 1
Test: Antiviral activity against HIV1 infected in human MT4 cells assessed as inhibition of virus-induced cytopathicity
Type: functional, organism-based
Settings: Human immunodeficiency virus 1, MT4

EC50: 300 nM
Compound: CC(C)=CCn1cc2c(c1)S(=O)(=O)c1cc(Cl)ccc1NC2=O
